Results published in PubChem BioAssay AID250 (DTP/NCI, 2004).
Several values for one entry are separate records, joined by “and”; a condition that tells them apart may be missing. Identical values can stand only once. Inconclusive results and toxic doses are left out. How the source made its calls: active means survival T/C of 150% or more; inactive means T/C below 125% in these data.

Test system: BDF1 mice, L1210 leukemia sc, survival T/C
Test: NCI In Vivo Anticancer Drug Screen. Data for tumor model L1210 Leukemia (subcutaneous) in B6D2F1 (BDF1) mice
Conditions: endpoint: median survival time, higher = longer survival
In short: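 Antitumor activity is assessed in mice with transplanted tumors by comparing the treated group (T) with the vehicle control group (C).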

[1] = dose: 300.0 mg/kg/injection, schedule: Q01DX Z (sc), vehicle: other
[2] = dose: 500.0 mg/kg/injection, schedule: Q01DX Z (sc), vehicle: other
[3] = dose: 39.0 mg/kg/injection, schedule: Q01DX Z (sc), vehicle: methylcellulose (MC)
[4] = dose: 65.0 mg/kg/injection, schedule: Q01DX Z (sc), vehicle: methylcellulose (MC)
[5] = dose: 39.0 mg/kg/injection, schedule: Q01DX Z (sc), vehicle: saline

Measured: T/C

O=c1cnn(C2OC(CO)C(O)C2O)c(=O)[nH]1 (stereo not drawn)
inactive: dose: 37.5 mg/kg/injection, schedule: Q01DX009 (ip), vehicle: water 114 % of control | dose: 75.0 mg/kg/injection, schedule: Q01DX009 (ip), vehicle: water 118 % of control and 121 % of control | dose: 75.0 mg/kg/injection, schedule: Q01DX009 (sc), vehicle: water 120 % of control | dose: 108.0 mg/kg/injection, schedule: Q01DX Z (sc), vehicle: other 120 % of control | dose: 150.0 mg/kg/injection, schedule: Q01DX009 (ip), vehicle: water 117 % of control and 120 % of control | dose: 150.0 mg/kg/injection, schedule: Q01DX009 (sc), vehicle: water 121 % of control and 122 % of control | dose: 180.0 mg/kg/injection, schedule: Q01DX Z (sc), vehicle: other 120 % of control | dose: 300.0 mg/kg/injection, schedule: Q01DX009 (ip), vehicle: water 117 % of control and 123 % of control | dose: 300.0 mg/kg/injection, schedule: Q01DX009 (sc), vehicle: water 117 % of control and 122 % of control | [1] 120 % of control | [2] 120 % of control | dose: 600.0 mg/kg/injection, schedule: Q01DX009 (ip), vehicle: water 118 % of control | dose: 600.0 mg/kg/injection, schedule: Q01DX009 (sc), vehicle: water 117 % of control | dose: 833.0 mg/kg/injection, schedule: Q01DX Z (sc), vehicle: other 110 % of control | dose: 1000.0 mg/kg/injection, schedule: Q01DX Z (sc), vehicle: other 122 % of control | dose: 1200.0 mg/kg/injection, schedule: Q01DX009 (ip), vehicle: water 104 % of control and 117 % of control | dose: 1200.0 mg/kg/injection, schedule: Q01DX009 (sc), vehicle: water 114 % of control

CC(=O)OCC(=O)[C@@]1(O)CC[C@H]2[C@@H]3CCC4=CC(=O)CC[C@]4(C)[C@@]3(F)[C@@H](O)C[C@@]21C
inactive: [3] 100 % of control | [4] 100 % of control | dose: 108.0 mg/kg/injection, schedule: Q01DX Z (sc), vehicle: methylcellulose (MC) 100 % of control | dose: 180.0 mg/kg/injection, schedule: Q01DX Z (sc), vehicle: methylcellulose (MC) 104 % of control | dose: 300.0 mg/kg/injection, schedule: Q01DX Z (sc), vehicle: methylcellulose (MC) 100 % of control | dose: 500.0 mg/kg/injection, schedule: Q01DX Z (sc), vehicle: methylcellulose (MC) 100 % of control

COc1ccc2cc1Oc1ccc(cc1)C[C@H]1c3cc(c(OC)cc3CCN1C)Oc1c(OC)c(OC)cc3c1[C@H](C2)N(C)CC3
inactive: dose: 37.5 mg/kg/injection, schedule: Q01DX009 (sc), vehicle: methylcellulose (MC) 90 % of control | dose: 37.5 mg/kg/injection, schedule: Q01DX009 (sc), vehicle: other 90 % of control | dose: 39.0 mg/kg/injection, schedule: Q01DX009 (sc), vehicle: other 100 % of control and 103 % of control | dose: 65.0 mg/kg/injection, schedule: Q01DX009 (sc), vehicle: other 100 % of control and 103 % of control | dose: 75.0 mg/kg/injection, schedule: Q01DX009 (sc), vehicle: methylcellulose (MC) 90 % of control | dose: 75.0 mg/kg/injection, schedule: Q01DX009 (sc), vehicle: other 92 % of control | dose: 108.0 mg/kg/injection, schedule: Q01DX009 (sc), vehicle: other 94 % of control and 95 % of control | dose: 150.0 mg/kg/injection, schedule: Q01DX009 (sc), vehicle: methylcellulose (MC) 95 % of control | dose: 150.0 mg/kg/injection, schedule: Q01DX009 (sc), vehicle: other 96 % of control | dose: 180.0 mg/kg/injection, schedule: Q01DX009 (sc), vehicle: other 97 % of control and 100 % of control | dose: 300.0 mg/kg/injection, schedule: Q01DX009 (sc), vehicle: other 88 % of control and 91 % of control and 82 % of control | dose: 600.0 mg/kg/injection, schedule: Q01DX009 (sc), vehicle: other 70 % of control

CN(N=O)C(=O)NC(C=O)C(O)C(O)C(O)CO (stereo not drawn)
inactive: [5] 100 % of control | dose: 65.0 mg/kg/injection, schedule: Q01DX Z (sc), vehicle: saline 112 % of control | dose: 108.0 mg/kg/injection, schedule: Q01DX Z (sc), vehicle: saline 100 % of control | dose: 180.0 mg/kg/injection, schedule: Q01DX Z (sc), vehicle: saline 112 % of control | dose: 300.0 mg/kg/injection, schedule: Q01DX Z (sc), vehicle: saline 112 % of control | dose: 500.0 mg/kg/injection, schedule: Q01DX Z (sc), vehicle: saline 100 % of control

COC1=C(N)C(=O)c2nc(-c3nc(C(=O)O)c(C)c(-c4ccc(OC)c(OC)c4O)c3N)ccc2C1=O
inactive: dose: 0.02 mg/kg/injection, schedule: Q01DX009 (ip), vehicle: water 92 % of control | dose: 0.02 mg/kg/injection, schedule: Q01DX009 (sc), vehicle: water 93 % of control | dose: 0.05 mg/kg/injection, schedule: Q01DX009 (ip), vehicle: water 96 % of control | dose: 0.05 mg/kg/injection, schedule: Q01DX009 (sc), vehicle: water 98 % of control | dose: 0.1 mg/kg/injection, schedule: Q01DX009 (ip), vehicle: water 96 % of control | dose: 0.1 mg/kg/injection, schedule: Q01DX009 (sc), vehicle: water 96 % of control | dose: 0.2 mg/kg/injection, schedule: Q01DX009 (ip), vehicle: water 93 % of control | dose: 0.2 mg/kg/injection, schedule: Q01DX009 (sc), vehicle: water 94 % of control | dose: 0.25 mg/kg/injection, schedule: Q01DX009 (sc), vehicle: water 104 % of control | dose: 0.4 mg/kg/injection, schedule: Q01DX009 (ip), vehicle: water 102 % of control | dose: 0.4 mg/kg/injection, schedule: Q01DX009 (sc), vehicle: water 98 % of control | dose: 0.5 mg/kg/injection, schedule: Q01DX009 (sc), vehicle: water 94 % of control and 106 % of control | dose: 1.0 mg/kg/injection, schedule: Q01DX009 (sc), vehicle: water 96 % of control and 101 % of control | dose: 2.0 mg/kg/injection, schedule: Q01DX009 (sc), vehicle: water 94 % of control and 96 % of control | dose: 4.0 mg/kg/injection, schedule: Q01DX009 (sc), vehicle: water 94 % of control

c1ccc2[nH]cnc2c1
inactive: dose: 14.0 mg/kg/injection, schedule: Q01DX Z (sc), vehicle: other 100 % of control | [1] 100 % of control | [2] 100 % of control

C[n+]1c2ccccc2nc2c(N)cc(N)cc21
inactive: dose: 1.8 mg/kg/injection, schedule: Q01DX Z (sc), vehicle: saline 100 % of control | dose: 3.0 mg/kg/injection, schedule: Q01DX Z (sc), vehicle: saline 100 % of control | dose: 5.0 mg/kg/injection, schedule: Q01DX Z (sc), vehicle: saline 100 % of control | dose: 8.4 mg/kg/injection, schedule: Q01DX Z (sc), vehicle: saline 100 % of control | dose: 14.0 mg/kg/injection, schedule: Q01DX Z (sc), vehicle: saline 100 % of control | dose: 23.0 mg/kg/injection, schedule: Q01DX Z (sc), vehicle: methylcellulose (MC) 105 % of control | dose: 23.0 mg/kg/injection, schedule: Q01DX Z (sc), vehicle: saline 111 % of control | [3] 105 % of control | [5] 111 % of control | [4] 105 % of control

CN(C)CCN(Cc1ccccc1)c1ccccn1
inactive: dose: 16.0 mg/kg/injection, schedule: Q01DX001 (sc), vehicle: saline 95 % of control and 100 % of control | dose: 20.0 mg/kg/injection, schedule: Q01DX001 (sc), vehicle: saline 97 % of control and 100 % of control | dose: 24.0 mg/kg/injection, schedule: Q01DX001 (sc), vehicle: saline 96 % of control and 100 % of control | dose: 30.0 mg/kg/injection, schedule: Q01DX001 (sc), vehicle: saline 98 % of control and 100 % of control
